Assay results from US11033559B2, “Leukocyte infiltration promoting agent and antitumor immunostimulatory agent” (OSAKA UNIVERSITY, priority 2015, dated 2021).

Experiments:
Type in all cases: in vivo
[1] = tested on: tumor blood vessels in LLC tumor-bearing mice; test: Structural changes in tumor blood vessels after administration of S1P; details: 0.3 mg/kg via the tail vein once daily for three days, 24 hours after final administration
Experimental: S1P, a lysophospholipid other than LPA, was examined for the ability to induce vascular network formation in the tumor as with LPA. LLC cells were subcutaneously inoculated into C57BL/6 […] mice aged 8 weeks (females, SLC, Inc.) in the same manner as in Reference Example 1. S1P (Avanti Polar Lipids, Inc.) was dissolved in PBS at 10 mM, and the solution was stored at -30° C. as a stock solution. Before use, the frozen stock solution was thawed and homogenized with an ultrasonic cleaner (SND Co., Ltd.) for 1 minute. The SIP solution was diluted in PBS to an appropriate concentration for administration at a dose of 0.3 mg/kg in […] PBS. LLC-bearing mice on day 9 post-inoculation (animals with a tumor volume of 60 to 80 mm^3) were subjected to the experiment. The mice were divided into two groups: a control group and an S1P group (n=3 per group). After grouping, S1P was administered via the tail vein to the mice of the S1P group at a dose of 0.3 mg/kg in 100 μL PBS once daily for consecutive three days including the day of grouping. For the control group, PBS (100 μL) was administered via the tail vein to the mice instead of S1P. At 24 hours after the final administration, the tumors were harvested from the mice, and specimens of tumor blood vessels were prepared in the same manner as in Reference Example 1. […]

LLC cells = test: Tumor growth inhibition, subcutaneous tumor formed from LLC cells; details: LLC-bearing mice; LPA 3 mg/kg i.p. once daily for seven days; 5-FU 100 mg/kg i.p. once weekly, 2 times
Experimental: LLC cells (1×10^6 cells in 100 μL PBS per animal) were subcutaneously injected into C57BL/6 NCrSlc mice aged 8 weeks (females) in the same manner as in Reference Example 1. An LPA solution for administration was prepared in the same manner as in Reference Example 1. 5-FU (Kyowa Hakko Kirin Co., Ltd.) was used as an anticancer drug. 5-FU was prepared as a solution in physiological saline (Otsuka Pharmaceutical Co., Ltd.). On day 7 post-inoculation, LLC-bearing mice that had developed a tumor with a volume of 30 to 50 mm^3 were selected and subjected to the experiment. The mice were assigned to three groups: a control group, a 5-FU group and an LPA group (n=3 per group). After grouping, LPA (3 mg/kg/100 μL), 5-FU (100 mg/kg/100 μL) or PBS (100 μL) was intraperitoneally administered to the mice. The administration of LPA or PBS was performed once daily for consecutive seven days. The administration of 5-FU was performed once weekly, 2 times in total (day 7 and day 14 post-inoculation). Tumor size was measured over time after the start of the administration. Tumor volume was calculated by the following formula: length×width×height×0.5.

[2] = tested on: tumor blood vessels in Lewis lung cancer (LLC) tumor-bearing mice; test: Structural changes in tumor blood vessels (anti-CD31 immunostaining) after administration of LPA or LPA derivative; details: 3 mg/kg intraperitoneally once daily for five days, tumors harvested at 6 days, anti-CD31 staining
Experimental: LPA or an LPA derivative was administered to tumor-bearing mice generated by subcutaneous inoculation of a mouse cancer cell line, and post-administration structural changes in tumor blood vessels were examined.
Lewis lung cancer cells (hereinafter called LLC cells) were used as the mouse cancer cell line. LLC cells (1×10^6 cells in 100 μL PBS per animal) were subcutaneously injected into C57BL/6 NCrSlc mice aged 8 weeks (females, SLC, Inc.).
The LPA used was 18:1 LPA (Avanti Polar Lipids, Inc.). The LPA derivative used was VPC31144S (N-{(1S)-2-hydroxy-1-[(phosphonooxy)methyl]ethyl} (9Z) octade c-9-enamide). A 10 mM LPA stock solution and a 10 mM VPC31144S stock solution were separately prepared using 50% ethanol and stored at −30° C. Before use, each of the frozen stock solutions was thawed and homogenized with an ultrasonic cleaner (SND Co., Ltd.) for 1 minute. The solution was diluted in PBS to an appropriate concentration for administration at a dose of 3 mg/kg in 100 μL PBS.
On day 9 post-inoculation, LLC-bearing mice that had developed a tumor with a volume of 60 to 80 mm^3 (volume=length×width×height×0.5) were selected and subjected to the experiment. The mice were assigned to three groups: a control group, an LPA group and a VPC31144S group. Each group consisted of three mice. […]

CCCCCCCCCCCCC/C=C/[C@@H](O)[C@@H](N)COP(=O)(O)O [S1P, sphingosine-1-phosphate]
vascular network formation in the tumor [1]: induced vascular network formation in the tumor

O=c1[nH]cc(F)c(=O)[nH]1 [5-FU, reference compound]
inhibition of tumor growth (tumor volume) versus control group (LLC cells): remarkable inhibition of tumor growth

CCCCCCCC/C=C\CCCCCCCC(=O)N[C@@H](CO)COP(=O)(O)O [VPC31144S, N-{(1S)-2-hydroxy-1-[(phosphonooxy)methyl]ethyl} (9Z) octade c-9-enamide]
network structure of tumor blood vessels [2]: a continuous network of blood vessels was formed
